# Assays:
# C57BL/6J mice [1] = assay: Experiment 3: low-fat diet with selenomethionine, inguinal and perigonadal fat pad weight; format: in vivo, mouse; conditions: male mice, selenomethionine 0.00015% of food, low-fat diet (10% of calories from fat), 8 week interval, p<0.01; even more effectively than methionine restriction
# Method: (§1) All animal studies conducted were approved by the Institutional Animal Care and Use Committee (IACUC) of the Orentreich Foundation for the Advancement of Science, Inc. (Permit Number: 0511 MB). C57BL/6J mice (stock number 000664) were purchased from the Jackson Laboratories (Bar Harbor, Me.) and housed in a conventional animal facility maintained at 20±2° C., 50±10% relative humidity, with a 12 hr/12 hr light/dark photoperiod. Food and water were provided ad libitum. Upon arrival, mice were acclimatized for up to one week and fed Purina Lab Chow 5001 (Ralston Purina, Co.; St. Louis, Mo.).
# In this experiment, male mice were divided into three groups, with each group being fed a separate low-fat diet ad libitum for 8 weeks. The first group represented the control-fed group (CF group) and was fed a low-fat base diet that included 0.86% methionine as a percentage of total food. The second group was fed a methionine-restricted diet (MR group) where the amount of methionine was restricted to 0.12% of total consumed. The third group was fed the base diet supplemented with selenomethionine (SMS group) in an amount representing 0.00015% of total food consumed.
# FIGS. 9A and 9B depict the reduced white adipose tissue accumulation of the SMS group as compared with the MR group and the CF group. […]
# C57BL/6J mice [2] = assay: Experiment 1: high-fat diet with selenium compounds, body mass, fat pad and liver mass; format: in vivo, mouse
# Method: as §1
# At the beginning of the experiment, the mice were divided into 5 groups with each group being fed one of five isocaloric (5.3 kcal/gm) high-fat diets ad libitum for several weeks. Each high-fat diet comprising a base of 12% kcal protein, 31% kcal carbohydrate, and 57% kcal fat. The first group's diet was the control-fed diet and included the base and methionine in an amount that represented about 0.86% of the weight of the food (sometimes referred to as “control group,” “control-fed group,” or “group 1”). The second group's diet was the methionine-restricted group where the base-diet was restricted to 0.12% methionine as a percentage of the total weight of the food (sometimes referred to as “methionine-restricted group” or “group 2”). The third group was fed the base diet containing 0.86% methionine, which was supplemented with sodium selenite in an amount representing 0.0073% of the total weight of the food (sometimes referred to as “sodium selenite-supplemented group” or “group 3”). The fourth group was fed the base diet containing 0.86% methionine, supplemented with 0.0036% selenomethionine, as a percentage of the total food weight (sometimes referred to as “group 4”). The fifth group was fed the base diet containing 0.86% methionine as a percentage of the total weight of the food, supplemented with 0.0073% selenomethionine as a percentage of the total weight of the food (sometimes referred to as “group 5”). Amounts of selenium-containing compounds used for this and subsequent experiments were determined from pilot studies aimed at identifying minimal doses that still achieve high efficacy. […] The amount of selenomethionine administered to the animals in the fourth and fifth groups was approximately 1/200 and 1/100 times respectively, of the levels of sulfur-containing amino acids (i.e., methionine and cysteine) present in the subjects' diets.
# Body mass and food consumption were monitored once a week for sixteen weeks. Prior to blood collection, animals were fasted for 4 hours to establish a physiological baseline. Blood was then collected from the retro-orbital plexus and processed using EDTA-K2-coated blood collection tubes (Milian Dutscher Group; Geneva, Switzerland). The resulting plasma was frozen and stored at −80° C. until used for analysis. A portion of each blood sample was used for blood glucose determination using an Abbott Freestyle Lite glucometer and glucose strips (Abbott Diabetes Care, Inc.; Alameda, Calif.). At the end of each study, animals were fasted and bled, as described above. The mice were then sacrificed, their overall body condition was assessed, and certain physiological parameters were measured. The inguinal and perigonadal fat pads, as well as liver of each mouse, were harvested by surgical resection, weighed, flash frozen, and stored at −80° C.
# [3] = female mice, high-fat diet, untreated = 100%, sodium selenite 0.0073% of food, selenomethionine 0.0036% or 0.0073% (which not stated)
# [4] = male mice, high-fat diet, untreated = 100%, sodium selenite 0.0073% of food, selenomethionine 0.0036% or 0.0073% (which not stated)
compound,measurement,setting,value
"C[Se]CC[C@H](N)C(=O)O [Selenomethionine, selenomethionine]","accumulation of inguinal and perigonadal adipose tissue (FIGS. 9A, 9B)",C57BL/6J mice [1],robust protection against the accumulation of adipose tissue
same,"Inguinal Fat Mass, Females",C57BL/6J mice [2]; [3],48%
same,"Perigonadal Fat Mass, Females",C57BL/6J mice [2]; [3],55%
same,"Total Body Mass, Females","C57BL/6J mice [2]; female mice, high-fat diet, untreated = 100%, sodium selenite 0.0073% of food, selenomethionine 0.0036% or 0.0073% (which not stated), 16 weeks",79%
same,"Inguinal Fat Mass, Males",C57BL/6J mice [2]; [4],54%
same,"Perigonadal Fat Mass, Males",C57BL/6J mice [2]; [4],60%
same,"Total Body Mass, Males","C57BL/6J mice [2]; male mice, high-fat diet, untreated = 100%, sodium selenite 0.0073% of food, selenomethionine 0.0036% or 0.0073% (which not stated), 16 weeks",84%
same,overall body mass / diet-induced obesity,"C57BL/6J mice [2]; male mice, selenomethionine 0.0036% and 0.0073% of food, high-fat diet, vs control-fed littermates",dose-dependent protection against diet-induced obesity
same,inguinal and perigonadal adipose tissue,"C57BL/6J mice [2]; male mice, selenomethionine-supplemented high-fat diet",less inguinal and perigonadal adipose tissue
same,liver mass,"C57BL/6J mice [2]; selenomethionine-supplemented vs control animals, high-fat diet",not significantly different

# Reference: patent US20220105127A1, “METHODS FOR PROVIDING THE BENEFITS OF METHIONINE RESTRICTION WITHOUT DIETARY RESTRICTION” (priority 2020, published 2022)
